Source: patent US11053204B2, “Pyrimidinyloxy benzene derivatives as herbicides” (FMC Corporation, priority 2015, dated 2021)

Columns and labels:
Assay type in all cases: in vivo
[1] = test system: corn (Zea mays); experiment: Test A postemergence, visual injury rating; conditions: for Corn plant response rating (0 to 100 scale): 500 g ai/ha
Method in brief: (§1)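 Greenhouse pot test, loam/sand soil. Formulation: non-phytotoxic solvent mix plus surfactant. Pre: directed spray onto soil after sowing. Post: plants at 1–2 leaf, 2–10 cm. Rated visually vs untreated controls at ~10 d, 0 (no effect) to 100 (complete control).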

[2] = test system: giant foxtail (Setaria faberii); experiment: Test A postemergence, visual injury rating; conditions: for Foxtail, Giant plant response rating (0 to 100 scale): 500 g ai/ha
Method in brief: as §1

[3] = test system: blackgrass (Alopecurus myosuroides); experiment: Test A postemergence, visual injury rating; conditions: for Blackgrass plant response rating (0 to 100 scale): 500 g ai/ha
Method in brief: as §1

[4] = test system: galium (catchweed bedstraw, Galium aparine); experiment: Test A postemergence, visual injury rating; conditions: for Galium plant response rating (0 to 100 scale): 500 g ai/ha
Method in brief: as §1

[5] = test system: Italian ryegrass (Lolium multiflorum); experiment: Test A postemergence, visual injury rating; conditions: for Ryegrass, Italian plant response rating (0 to 100 scale): 500 g ai/ha
Method in brief: as §1

[6] = test system: pigweed (Amaranthus retroflexus); experiment: Test A postemergence, visual injury rating; conditions: for Pigweed plant response rating (0 to 100 scale): 500 g ai/ha
Method in brief: as §1

[7] = test system: ragweed (common ragweed, Ambrosia elatior); experiment: Test A postemergence, visual injury rating; conditions: for Ragweed plant response rating (0 to 100 scale): 500 g ai/ha
Method in brief: as §1

[8] = test system: kochia (Kochia scoparia); experiment: Test A postemergence, visual injury rating; conditions: for Kochia plant response rating (0 to 100 scale): 500 g ai/ha
Method in brief: as §1

[9] = test system: barnyardgrass (Echinochloa crus-galli); experiment: Test A postemergence, visual injury rating; conditions: 0 is no effect, 100 is complete control; for Barnyardgrass plant response rating: 0 to 100 scale, approximately 10 days; for Barnyardgrass plant response rating (0 to 100 scale): 500 g ai/ha
Method in brief: as §1

[10] = test system: wheat (Triticum aestivum); experiment: Test A postemergence, visual injury rating; conditions: for Wheat plant response rating (0 to 100 scale): 500 g ai/ha
Method in brief: as §1

[11] = test system: waterhemp (common waterhemp, Amaranthus rudis); experiment: Test C postemergence, plant response rating; conditions: for Waterhemp plant response rating: 125 g ai/ha, scale 0 to 100 (0 no effect, 100 complete control)
Method in brief: (§2)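 Both timings shared one formulation, a non-phytotoxic solvent mixture with surfactant, and a greenhouse period of 13 to 15 d. Preemergence used seeded loam/sand or silt loam soil, postemergence used 2 to 18 cm plants; visual ratings ran from 0 (no effect) to 100 (complete control).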

[12] = test system: velvetleaf (Abutilon theophrasti); experiment: Test C postemergence, plant response rating; conditions: for Velvetleaf plant response rating: 125 g ai/ha, scale 0 to 100 (0 no effect, 100 complete control)
Method in brief: as §2

[13] = test system: galium (catchweed bedstraw, Galium aparine); experiment: Test C postemergence, plant response rating; conditions: for Galium plant response rating: scale 0 to 100 (0 no effect, 100 complete control)
Method in brief: as §2

[14] = test system: ragweed (common ragweed, Ambrosia elatior); experiment: Test C postemergence, plant response rating; conditions: for Ragweed plant response rating: scale 0 to 100 (0 no effect, 100 complete control)
Method in brief: as §2

[15] = test system: sedge, umbrella (small-flower umbrella sedge, Cyperus difformis); experiment: Test B flooded paddy test, plant response rating; conditions: 250 g ai/ha; Flood; scale of 0 to 100 where 0 is no effect and 100 is complete control; 13 to 15 days
Method in brief: (§3)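 In-water treatment: compound dosed into 3 cm flood over soil, water level unchanged throughout. Controls run alongside; visual assessment at day 13–15.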

[16] = test system: ducksalad (Heteranthera limosa); experiment: Test B flooded paddy test, plant response rating; conditions: 250 g ai/ha; Flood; scale of 0 to 100 where 0 is no effect and 100 is complete control; 13 to 15 days
Method in brief: as §3

[17] = test system: rice (Oryza sativa); experiment: Test B flooded paddy test, plant response rating; conditions: 250 g ai/ha; Flood; scale of 0 to 100 where 0 is no effect and 100 is complete control; 13 to 15 days
Method in brief: as §3

[18] = test system: barnyardgrass (Echinochloa crus-galli); experiment: Test B flooded paddy test, plant response rating; conditions: 250 g ai/ha; Flood; scale of 0 to 100 where 0 is no effect and 100 is complete control; 13 to 15 days
Method in brief: as §3

[19] = 31 g ai/ha, 0 to 100 scale, 0 is no effect, 100 is complete control, approximately 10 days
[20] = 125 g ai/ha, 0 to 100 scale, 0 is no effect, 100 is complete control, approximately 10 days
[21] = 0 is no effect, 100 is complete control
[22] = 31 g ai/ha, 0 to 100 scale (0 no effect, 100 complete control)

Compound	Corn plant response rating [1, 20]	Foxtail, Giant plant response rating [2, 20]	Blackgrass plant response rating [3, 20]	Galium plant response rating [4, 20]	Ryegrass, Italian plant response rating [5, 20]	Pigweed plant response rating [6, 20]	Ragweed plant response rating [7, 20]	Kochia plant response rating [8, 20]	Barnyardgrass plant response rating ([9]; 125 g ai/ha)	Wheat plant response rating [10, 20]	Plant response rating, Waterhemp ([11]; 16 g ai/ha, scale of 0 to 100)	Plant response rating, Waterhemp ([11]; 31 g ai/ha, scale 0 to 100)	Waterhemp plant response rating [11]	Plant response rating, Velvetleaf ([12]; 16 g ai/ha, scale of 0 to 100)	Plant response rating, Velvetleaf ([12]; 31 g ai/ha, scale 0 to 100)	Velvetleaf plant response rating [12]	Plant response rating, Galium ([13]; 16 g ai/ha, scale of 0 to 100)	Plant response rating, Galium ([13]; 31 g ai/ha, scale 0 to 100)	Galium plant response rating ([13]; 62 g ai/ha)	Galium plant response rating ([13]; 125 g ai/ha)	also measured
O=C(CCC(F)(F)C(F)(F)F)c1c(Br)cccc1Oc1ncc(Cl)cn1 [Compound 110]	50	90	50	100	20	100	0	100	60	20	85	90	95	50	40	75	60	75	75	90	Corn plant response rating [1, 19]: 20; Foxtail, Giant plant response rating [2, 19]: 30; Blackgrass plant response rating [3, 19]: 0; Galium plant response rating [4, 19]: 70; Ryegrass, Italian plant response rating [5, 19]: 0; Pigweed plant response rating [6, 19]: 90; Ragweed plant response rating [7, 19]: 0; Kochia plant response rating [8, 19]: 100; Barnyardgrass plant response rating ([9]; 31 g ai/ha): 30; Wheat plant response rating [10, 19]: 0; Plant response rating, Ragweed ([14]; 16 g ai/ha, scale of 0 to 100): 40; Plant response rating, Ragweed ([14]; 31 g ai/ha, scale 0 to 100): 50; Ragweed plant response rating ([14]; 62 g ai/ha): 60; Ragweed plant response rating ([14]; 125 g ai/ha): 60; Plant response rating, Sedge, Umbrella [15]: 90; Plant response rating, Ducksalad [16]: 75; Plant response rating, Rice [17]: 25; Plant response rating, Barnyardgrass [18]: 25
O=C(CCCC(F)(F)F)c1c(Oc2ncc(Cl)cn2)cccc1C(F)(F)F [Compound 125]	10	50	30	100	20	100	30	100	30	20	75	80	90	20	35	30	65	70	80	90	Corn plant response rating (0 to 100 scale) [1, 21]: 30; Foxtail, Giant plant response rating (0 to 100 scale) [2, 21]: 90; Blackgrass plant response rating (0 to 100 scale) [3, 21]: 90; Galium plant response rating (0 to 100 scale) [4, 21]: 100; Ryegrass, Italian plant response rating (0 to 100 scale) [5, 21]: 90; Pigweed plant response rating (0 to 100 scale) [6, 21]: 100; Ragweed plant response rating (0 to 100 scale) [7, 21]: 40; Kochia plant response rating (0 to 100 scale) [8, 21]: 100; Barnyardgrass plant response rating (0 to 100 scale) [9]: 90; Wheat plant response rating (0 to 100 scale) [10, 21]: 30; Plant response rating, Ragweed ([14]; 16 g ai/ha, scale of 0 to 100): 5; Plant response rating, Ragweed ([14]; 31 g ai/ha, scale 0 to 100): 35; Ragweed plant response rating ([14]; 62 g ai/ha): 45; Ragweed plant response rating ([14]; 125 g ai/ha): 55; Plant response rating, Sedge, Umbrella [15]: 90; Plant response rating, Ducksalad [16]: 70; Plant response rating, Rice [17]: 35; Plant response rating, Barnyardgrass [18]: 45
CCCCC(=O)c1c(Oc2ncc(Cl)cn2)cccc1C(F)(F)F [Compound 130]	20	40	50	100	20	100	30	100	90	30	65	75	85	25	45	75	75	80	85	80	Corn plant response rating (0 to 100 scale) [1, 21]: 50; Foxtail, Giant plant response rating (0 to 100 scale) [2, 21]: 90; Blackgrass plant response rating (0 to 100 scale) [3, 21]: 90; Galium plant response rating (0 to 100 scale) [4, 21]: 100; Ryegrass, Italian plant response rating (0 to 100 scale) [5, 21]: 90; Pigweed plant response rating (0 to 100 scale) [6, 21]: 100; Ragweed plant response rating (0 to 100 scale) [7, 21]: 60; Kochia plant response rating (0 to 100 scale) [8, 21]: 100; Barnyardgrass plant response rating (0 to 100 scale) [9]: 100; Wheat plant response rating (0 to 100 scale) [10, 21]: 30; Plant response rating, Ragweed ([14]; 16 g ai/ha, scale of 0 to 100): 25; Plant response rating, Ragweed ([14]; 31 g ai/ha, scale 0 to 100): 45; Ragweed plant response rating ([14]; 62 g ai/ha): 55; Ragweed plant response rating ([14]; 125 g ai/ha): 50; Plant response rating, Sedge, Umbrella [15]: 98; Plant response rating, Ducksalad [16]: 40; Plant response rating, Rice [17]: 35; Plant response rating, Barnyardgrass [18]: 55
CCCC(=O)c1c(Oc2ncc(Cl)cn2)cccc1C(F)(F)F [Compound 136]	20	30	50	40	10	100	20	80	30	10	70	70	75	20	50	70	50	65	60	75	Corn plant response rating (0 to 100 scale) [1, 21]: 50; Foxtail, Giant plant response rating (0 to 100 scale) [2, 21]: 90; Blackgrass plant response rating (0 to 100 scale) [3, 21]: 100; Galium plant response rating (0 to 100 scale) [4, 21]: 100; Ryegrass, Italian plant response rating (0 to 100 scale) [5, 21]: 70; Pigweed plant response rating (0 to 100 scale) [6, 21]: 100; Ragweed plant response rating (0 to 100 scale) [7, 21]: 60; Kochia plant response rating (0 to 100 scale) [8, 21]: 100; Barnyardgrass plant response rating (0 to 100 scale) [9]: 80; Wheat plant response rating (0 to 100 scale) [10, 21]: 20; Plant response rating, Ragweed ([14]; 16 g ai/ha, scale of 0 to 100): 20; Plant response rating, Ragweed ([14]; 31 g ai/ha, scale 0 to 100): 20; Ragweed plant response rating ([14]; 62 g ai/ha): 30; Ragweed plant response rating ([14]; 125 g ai/ha): 35; Plant response rating, Sedge, Umbrella [15]: 80; Plant response rating, Ducksalad [16]: 60; Plant response rating, Rice [17]: 35; Plant response rating, Barnyardgrass [18]: 45
FC(F)(F)CCCCc1c(Cl)cccc1Oc1ncc(Cl)cn1 [Compound 137]	10	60	30	100	30	100	40	100	60	10	40	60	75	10	15	70	55	70	75	85	Corn plant response rating [1, 22]: 10; Foxtail, Giant plant response rating [2, 22]: 10; Blackgrass plant response rating [3, 22]: 10; Galium plant response rating [4, 22]: 40; Ryegrass, Italian plant response rating [5, 22]: 10; Pigweed plant response rating [6, 22]: 80; Ragweed plant response rating [7, 22]: 10; Kochia plant response rating [8, 22]: 90; Barnyardgrass plant response rating ([9]; 31 g ai/ha): 20; Wheat plant response rating [10, 22]: 0; Plant response rating, Ragweed ([14]; 16 g ai/ha, scale of 0 to 100): 20; Plant response rating, Ragweed ([14]; 31 g ai/ha, scale 0 to 100): 35; Ragweed plant response rating ([14]; 62 g ai/ha): 30; Ragweed plant response rating ([14]; 125 g ai/ha): 30; Plant response rating, Sedge, Umbrella [15]: 95; Plant response rating, Ducksalad [16]: 95; Plant response rating, Rice [17]: 50; Plant response rating, Barnyardgrass [18]: 75
